In patent US20250206732A1, “COMPOUNDS AND METHODS FOR THE TARGETED DEGRADATION OF KRAS” (Arvinas Operations, Inc., priority 2022, published 2025):

Molecular target: T1, AsPC-1 HiBiT-KRASG12D (Homo sapiens, UniProt P01116, G12D)
T1 construct: insert the HiBiT tag onto the N-terminus of one or more of the endogenous KRAS alleles; endogenous in cells; host or cells: AsPC-1 (ATCC CRL-1682), CRISPR-Cas9 knock-in clone, one tagged allele
Assay: HiBiT degradation assay (G12D), AsPC-1 HiBiT-KRASG12D cells
Assay type: cell-based
Conditions: 24 hours treatment; for DC50: AsPC-1 HiBiT-KRASG12D cells, HiBiT luminescence; for Dmax: ASPC1, AsPC-1 HiBiT-KRASG12D cells, maximum degradation observed
Outline: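 HiBiT-KRAS abundance was read as Nano-Glo HiBiT lytic luminescence (45 min, room temperature) after a PBS wash. Before that, a 4 h alamar blue fluorescence read, normalized to DMSO, monitored viability. Treatment lasted 24 hours at 37 °C, in triplicate, using AsPC-1 cells with endogenous N-terminally HiBiT-tagged KRAS G12D.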

T1 sequence (P01116 1-188 isoform P01116-2 G12D): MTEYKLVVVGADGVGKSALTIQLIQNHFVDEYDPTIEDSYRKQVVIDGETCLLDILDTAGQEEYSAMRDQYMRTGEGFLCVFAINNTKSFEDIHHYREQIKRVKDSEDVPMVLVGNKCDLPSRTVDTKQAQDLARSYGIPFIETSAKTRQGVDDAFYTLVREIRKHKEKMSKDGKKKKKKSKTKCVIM

SMILES | DC50 [nM] | Dmax [%]
CCc1cccc2cc(O)cc(-c3ncc4c(N5CC6CCC(C5)N6)nc(OCCN5CCC(COc6cc([C@@H](C(=O)N7C[C@H](O)C[C@H]7C(=O)N[C@@H](C)c7ccc(-c8ccnn8C)cc7)C(C)C)on6)CC5)nc4c3F)c12 (relative stereo) [Compound 142, (2S,4R*)-1-[(2S)-2-{3-[(1-{2-[(4-{3,8-diazabicyclo[3.2.1]octan-3-yl}-7-(8-ethyl-3-hydroxynaphthalen-1-yl)-8-fluoropyrido[4,3-d]pyrimidin-2-yl)oxy]ethyl}piperidin-4-yl)methoxy]-1,2-oxazol-5-yl}-3-methylbutanoyl]-4-hydroxy-N-[(1S)-1-[4-(1-methyl-1H-pyrazol-5-yl)phenyl]ethyl]pyrrolidine-2-carboxamide] | > 3000 | –
CCc1cccc2cc(O)cc(-c3ncc4c(N5CC6CCC(C5)N6)nc(OCCN5C[C@@H]6CN(c7cc(C(C(=O)N8C[C@H](O)C[C@H]8C(=O)N[C@@H](C)c8ccc(-c9scnc9C)cc8)C(C)C)on7)C[C@@H]6C5)nc4c3F)c12 (relative stereo) [Compound 80, (2S,4R)-1-[(2R*)-2-{3-[(3aR,6aS)-5-{2-[(4-{3,8-diazabicyclo[3.2.1]octan-3-yl}-7-(8-ethyl-3-hydroxynaphthalen-1-yl)-8-fluoropyrido[4,3-d]pyrimidin-2-yl)oxy]ethyl}-octahydropyrrolo[3,4-c]pyrrol-2-yl]-1,2-oxazol-5-yl}-3-methylbutanoyl]-4-hydroxy-N-[(1S)-1-[4-(4-methyl-1,3-thiazol-5-yl)phenyl]ethyl]pyrrolidine-2-carboxamide] | < 600 | 80 to 100
C#Cc1c(F)ccc2cc(O)cc(-c3ncc4c(N5CC6CCC(C5)N6)nc(OCCN5CCC(C6CCN(c7cc([C@@H](C(=O)N8C[C@H](O)C[C@H]8C(=O)N[C@@H](C)c8ccc(-c9scnc9C)cc8)C(C)C)on7)CC6)CC5)nc4c3F)c12 [Compound 177, (2S,4R)-1-[(2S)-2-[3-(1′-{2-[(4-{3,8-diazabicyclo[3.2.1]octan-3-yl}-7-(8-ethynyl-7-fluoro-3-hydroxynaphthalen-1-yl)-8-fluoropyrido[4,3-d]pyrimidin-2-yl)oxy]ethyl}-[4,4′-bipiperidin]-1-yl)-1,2-oxazol-5-yl]-3-methylbutanoyl]-4-hydroxy-N-[(1S)-1-[4-(4-methyl-1,3-thiazol-5-yl)phenyl]ethyl]pyrrolidine-2-carboxamide] | < 600 | 60 to 80
CCc1cccc2cc(O)cc(-c3ncc4c(N5CC6CCC(C5)N6)nc(OC[C@@]56CCCN5[C@H](COC(=O)N5CCN(c7cc([C@@H](C(=O)N8C[C@H](O)C[C@H]8C(=O)N[C@@H](C)c8ccc(-c9scnc9C)cc8)C(C)C)on7)C[C@@H]5C)CC6)nc4c3F)c12 [Compound 326, [(3S,8S)-8-[[4-(3,8-diazabicyclo[3.2.1]octan-3-yl)-7-(8-ethyl-3-hydroxy-1-naphthyl)-8-fluoro-pyrido[4,3-d]pyrimidin-2-yl]oxymethyl]-1,2,3,5,6,7-hexahydropyrrolizin-3-yl]methyl (2S)-4-[5-[(1S)-1-[(2S,4R)-4-hydroxy-2-[[(1S)-1-[4-(4-methylthiazol-5-yl)phenyl]ethyl]carbamoyl]pyrrolidine-1-carbonyl]-isobutyl]isoxazol-3-yl]-2-methyl-piperazine-1-carboxylate] | < 600 | < 20
C#Cc1c(F)ccc2cc(O)cc(-c3ncc4c(N5CC6CCC(C5)N6)nc(OC[C@]56CCCN5[C@H](COC(=O)N5CC(Oc7cc([C@H](C(=O)N8C[C@H](O)C[C@H]8C(=O)N[C@@H](C)c8ccc(-c9scnc9C)cc8)C(C)C)on7)C5)CC6)nc4c3F)c12 [Compound 292] | < 600 | 80 to 100
CCc1cccc2cc(O)cc(-c3ncc4c(N5CC6CCC(C5)N6)nc(OC[C@]56CCCN5[C@H](COC(=O)N5CCN(c7cc([C@@H](C(=O)N8C[C@H](O)C[C@H]8C(=O)N[C@@H](C)c8ccc(-c9scnc9C)cc8)C(C)C)on7)CC5)CC6)nc4c3F)c12 [Compound 87, [(3S,7aR)-7a-{[(4-{3,8-diazabicyclo[3.2.1]octan-3-yl}-7-(8-ethyl-3-hydroxynaphthalen-1-yl)-8-fluoropyrido[4,3-d]pyrimidin-2-yl)oxy]methyl}-hexahydro-1H-pyrrolizin-3-yl]methyl 4-{5-[(2S)-1-[(2S,4R)-4-hydroxy-2-{[(1S)-1-[4-(4-methyl-1,3-thiazol-5-yl)phenyl]ethyl]carbamoyl}pyrrolidin-1-yl]-3-methyl-1-oxobutan-2-yl]-1,2-oxazol-3-yl}piperazine-1-carboxylate] | 600 to 1000 | 20 to 60
CCc1cccc2cc(O)cc(-c3ncc4c(N5CC6CCC(C5)N6)nc(OCCN5CCC(N(C)c6cc([C@@H](C(=O)N7C[C@H](O)C[C@H]7C(=O)N[C@@H](C)c7ccc(-c8scnc8C)cc7)C(C)C)on6)CC5)nc4c3F)c12 (relative stereo) [Compound 137, (2S,4R)-1-[(2R*)-2-{3-[(1-{2-[(4-{3,8-diazabicyclo[3.2.1]octan-3-yl}-7-(8-ethyl-3-hydroxynaphthalen-1-yl)-8-fluoropyrido[4,3-d]pyrimidin-2-yl)oxy]ethyl}piperidin-4-yl)(methyl)amino]-1,2-oxazol-5-yl}-3-methylbutanoyl]-4-hydroxy-N-[(1S)-1-[4-(4-methyl-1,3-thiazol-5-yl)phenyl]ethyl]pyrrolidine-2-carboxamide] | 1000 to 3000 | 20 to 60
CCc1cccc2cc(O)cc(-c3ncc4c(N5CC6CCC(C5)N6)nc(OC[C@@H]5CC[C@@H](COC(=O)N6CCN(c7cc([C@H](C(=O)N8C[C@H](O)C[C@H]8C(=O)N[C@@H](C)c8ccc(-c9scnc9C)cc8)C(C)C)on7)CC6)N5C)nc4c3F)c12 [Compound 50, [(2S,5S)-5-{[(4-{3,8-diazabicyclo[3.2.1]octan-3-yl}-7-(8-ethyl-3-hydroxynaphthalen-1-yl)-8-fluoropyrido[4,3-d]pyrimidin-2-yl)oxy]methyl}-1-methylpyrrolidin-2-yl]methyl 4-{5-[(2R)-1-[(2S,4R)-4-hydroxy-2-{[(1S)-1-[4-(4-methyl-1,3-thiazol-5-yl)phenyl]ethyl]carbamoyl}pyrrolidin-1-yl]-3-methyl-1-oxobutan-2-yl]-1,2-oxazol-3-yl}piperazine-1-carboxylate] | < 600 | 80 to 100
CCc1cccc2cc(O)cc(-c3ncc4c(N5CC6CCC(C5)N6)nc(OCCN5CCC(F)(COc6cc([C@H](C(=O)N7C[C@H](O)C[C@H]7C(=O)N[C@@H](C)c7ccc(-c8scnc8C)cc7)C(C)C)on6)CC5)nc4c3F)c12 [Compound 337, (2S,4R)-1-[(2R)-2-{3-[(1-{2-[(4-{3,8-diazabicyclo[3.2.1]octan-3-yl}-7-(8-ethyl-3-hydroxynaphthalen-1-yl)-8-fluoropyrido[4,3-d]pyrimidin-2-yl)oxy]ethyl}-4-fluoropiperidin-4-yl)methoxy]-1,2-oxazol-5-yl}-3-methylbutanoyl]-4-hydroxy-N-[(1S)-1-[4-(4-methyl-1,3-thiazol-5-yl)phenyl]ethyl]pyrrolidine-2-carboxamide] | < 600 | 80 to 100
CCc1cccc2cccc(-c3ncc4c(N5CC6CCC(C5)N6)nc(OC[C@]56CCCN5[C@H](COc5cc([C@@H](C(=O)N7C[C@H](O)C[C@H]7C(=O)N[C@@H](C)c7ccc(-c8scnc8C)cc7)C(C)C)on5)CC6)nc4c3F)c12 [Compound 310, (2S,4R)-1-[(2S)-2-[3-[[(3S,8R)-8-[[4-(3,8-diazabicyclo[3.2.1]octan-3-yl)-7-(8-ethyl-1-naphthyl)-8-fluoro-pyrido[4,3-d]pyrimidin-2-yl]oxymethyl]-1,2,3,5,6,7-hexahydropyrrolizin-3-yl]methoxy]isoxazol-5-yl]-3-methyl-butanoyl]-4-hydroxy-N-[(1S)-1-[4-(4-methylthiazol-5-yl)phenyl]ethyl]pyrrolidine-2-carboxamide] | < 600 | 80 to 100
CCc1cccc2cc(O)cc(-c3ncc4c(N5CC6CCC(C5)N6)nc(OC[C@@]56CCCN5[C@H](COC(=O)N5CCC(Oc7cc([C@H](C(=O)N8C[C@H](O)C[C@H]8C(=O)N[C@@H](C)c8ccc(-c9scnc9C)cc8)C(C)C)on7)CC5)CC6)nc4c3F)c12 [Compound 117, [(3S,7aS)-7a-{[(4-{3,8-diazabicyclo[3.2.1]octan-3-yl}-7-(8-ethyl-3-hydroxynaphthalen-1-yl)-8-fluoropyrido[4,3-d]pyrimidin-2-yl)oxy]methyl}-hexahydro-1H-pyrrolizin-3-yl]methyl 4-({5-[(2R)-1-[(2S,4R)-4-hydroxy-2-{[(1S)-1-[4-(4-methyl-1,3-thiazol-5-yl)phenyl]ethyl]carbamoyl}pyrrolidin-1-yl]-3-methyl-1-oxobutan-2-yl]-1,2-oxazol-3-yl}oxy)piperidine-1-carboxylate] | < 600 | 80 to 100
CCc1cccc2cccc(-c3ncc4c(N5CC6CCC(C5)N6)nc(OC[C@]56CCCN5[C@H](COC(=O)N5CCN(c7cc([C@H](C(=O)N8C[C@H](O)C[C@H]8C(=O)N[C@@H](C)c8ccc(-c9scnc9C)cc8)C(C)C)on7)CC5)CC6)nc4c3F)c12 [Compound 57] | < 600 | 60 to 80
CCc1cccc2cc(O)cc(-c3ncc4c(N5CC6CCC(C5)N6)nc(OCCN5CCC(CN6CC(Oc7cc([C@@H](C(=O)N8C[C@H](O)C[C@H]8C(=O)N[C@@H](C)c8ccc(-c9scnc9C)cc8)C(C)C)on7)C6)CC5)nc4c3F)c12 [Compound 245] | > 3000 | –
